Data reported in ChEMBL document CHEMBL5727076, “GDF-8 inhibitors” (2018).

Legend:
TGF-beta receptor type-1 = TGF-beta receptor type-1 (Homo sapiens, UniProt P36897, T204D); test: The reaction is incubated for 1 hour at room temperature and the HTRF signal was measured on an Envision plate reader (Ex: 340 nm; Em: 520 nm/495 nm). Inhibition data were calculated by comparison to no enzyme control reactions for 100% inhibition and vehicle-only reactions for 0% inhibition. The final concentration of reagents in the assay are 1 nM HIS-TGFβR1 T204D or HIS-TGFβR2 WT, 0.2 nM anti-HIS detection antibody, labeled small molecule probe (at Kd) and 0.5% DMSO. Dose response curves were generated to determine the concentration required inhibiting 50% of kinase activity (IC50). Compounds were dissolved at 10 mM in dimethylsulfoxide (DMSO) and evaluated at eleven concentrations.
TGF-beta receptor type-1, sequence (P36897 34-503 T204D limits assumed): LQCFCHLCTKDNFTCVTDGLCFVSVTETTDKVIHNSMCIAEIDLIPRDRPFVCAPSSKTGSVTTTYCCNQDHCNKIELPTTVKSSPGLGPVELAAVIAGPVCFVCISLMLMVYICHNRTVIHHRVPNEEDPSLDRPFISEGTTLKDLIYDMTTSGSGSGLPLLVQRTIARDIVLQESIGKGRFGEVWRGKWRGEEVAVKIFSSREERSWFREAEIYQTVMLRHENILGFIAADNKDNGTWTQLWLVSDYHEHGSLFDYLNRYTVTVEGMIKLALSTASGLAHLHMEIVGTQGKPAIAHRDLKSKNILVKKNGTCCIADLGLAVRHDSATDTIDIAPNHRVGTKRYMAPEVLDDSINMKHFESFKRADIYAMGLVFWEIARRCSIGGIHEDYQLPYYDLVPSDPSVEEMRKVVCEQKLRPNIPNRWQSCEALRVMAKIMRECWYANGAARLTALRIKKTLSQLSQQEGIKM

TGF-beta receptor type-2 = TGF-beta receptor type-2 (Homo sapiens, UniProt P37173); test: Compounds were dissolved at 10 mM in dimethylsulfoxide (DMSO) and evaluated at eleven concentrations.
TGF-beta receptor type-2, sequence (P37173 whole entry): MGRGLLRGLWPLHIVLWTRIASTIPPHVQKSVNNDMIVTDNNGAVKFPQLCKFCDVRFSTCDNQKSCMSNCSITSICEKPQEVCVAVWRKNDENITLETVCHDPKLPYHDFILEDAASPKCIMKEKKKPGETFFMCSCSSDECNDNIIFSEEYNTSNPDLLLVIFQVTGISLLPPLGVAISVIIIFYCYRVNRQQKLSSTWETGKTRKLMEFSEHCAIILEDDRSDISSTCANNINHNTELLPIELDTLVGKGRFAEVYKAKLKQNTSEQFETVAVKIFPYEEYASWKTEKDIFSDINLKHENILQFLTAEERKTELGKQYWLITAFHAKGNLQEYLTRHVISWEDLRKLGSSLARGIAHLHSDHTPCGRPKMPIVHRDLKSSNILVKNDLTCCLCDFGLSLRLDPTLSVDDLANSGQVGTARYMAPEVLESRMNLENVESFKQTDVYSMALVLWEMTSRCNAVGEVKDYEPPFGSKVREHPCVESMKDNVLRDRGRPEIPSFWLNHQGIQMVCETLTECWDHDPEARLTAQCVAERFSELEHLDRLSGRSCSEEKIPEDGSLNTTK

| SMILES | IC50 (TGF-beta receptor type-1) | IC50 (TGF-beta receptor type-2) |
| --- | --- | --- |
| N#Cc1cnc2ccc(-c3cccnc3-c3cccc(C(F)(F)F)n3)cn12 | 11 nM | > 15000 nM |
| Cc1cccc(-c2ncccc2-c2ccn3ncc(C(N)=O)c3n2)n1 | 6 nM | > 15000 nM |
| CNC(=O)c1cnc2ccc(-c3cccnc3-c3cccc(C)n3)cn12 | 2 nM | > 15000 nM |
| Cc1cccc(-c2ncccc2-c2ccc3ncc(C(=O)O)n3c2)n1 | 4 nM | – |
